Data published in the supplement of paper PMC11061612.

Legend:
[1] = system: T84 (Colorectal Carcinoma); assay: combination Emax (second highest fraction inhibited in the dose matrix, 72 h); higher = more inhibition; extreme values may be limits of the assay
In short: (§1)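 Bliss excess equals the observed combination effect minus the expected value EA + EB − EA·EB, where EA and EB are the effects of each agent alone. Combination Emax is the second-highest inhibition within the matrix. Inhibition was scaled from CellTiter-Glo 2.0 luminescence, with 0 set by vehicle wells and 1 by blank wells, after 72 hours of two-drug dosing of cells plated in 1536-well plates.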

[2] = system: CPC-N (Small Cell Lung Carcinoma); assay: as above
In short: as §1

[3] = system: SNU-C2B (Colorectal Carcinoma); assay: as above
In short: as §1

[4] = system: Raji (Burkitt's Lymphoma); assay: as above
In short: as §1

[5] = system: NCI-H1341 (Small Cell Lung Carcinoma); assay: as above
In short: as §1

[6] = system: OAW-28 (Ovarian Carcinoma); assay: as above
In short: as §1

[7] = system: SAT (Head and Neck Carcinoma); assay: as above
In short: as §1

[8] = system: C-33-A (Cervical Carcinoma); assay: as above
In short: as §1

[9] = system: OVCAR-3 (Ovarian Carcinoma); assay: as above
In short: as §1

[10] = system: LS-1034 (Colorectal Carcinoma); assay: as above
In short: as §1

[11] = system: NCI-H1876 (Small Cell Lung Carcinoma); assay: as above
In short: as §1

[12] = system: HT-1080 (Other Solid Carcinomas); assay: as above
In short: as §1

[13] = system: CL-11 (Colorectal Carcinoma); assay: as above
In short: as §1

[14] = system: SK-N-SH (Neuroblastoma); assay: as above
In short: as §1

[15] = system: DBTRG-05MG (Glioblastoma); assay: as above
In short: as §1

[16] = system: MM1S (Plasma Cell Myeloma); assay: as above
In short: as §1

[17] = system: SiHa (Cervical Carcinoma); assay: as above
In short: as §1

[18] = system: NCI-H1341 (Small Cell Lung Carcinoma); assay: Bliss excess, mean over the matrix (fraction); higher = more synergy
In short: as §1

[19] = system: LCLC-103H (Non-Small Cell Lung Carcinoma); assay: as above
In short: as §1

[20] = system: SNU-423 (Hepatocellular Carcinoma); assay: as above
In short: as §1

| Compound | combination Emax [1] | combination Emax [2] | combination Emax [3] | combination Emax [4] | combination Emax [5] | combination Emax [6] | combination Emax [7] | combination Emax [8] | combination Emax [9] | combination Emax [10] | combination Emax [11] | combination Emax [12] | combination Emax [13] | combination Emax [14] | combination Emax [15] | combination Emax [16] | combination Emax [17] | Bliss excess [18] | Bliss excess [19] | Bliss excess [20] |
| --- | --- | --- | --- | --- | --- | --- | --- | --- | --- | --- | --- | --- | --- | --- | --- | --- | --- | --- | --- | --- |
| COc1nnc2ccc(N3CCC(c4ccc(OCCN5CCN(C)C(=O)[C@H]5C)cc4)CC3)nn12 [AZD5153] + CC1(C)CCC(CN2CCN(c3ccc(C(=O)NS(=O)(=O)c4ccc(NCC5CCOCC5)c([N+](=O)[O-])c4)c(Oc4cnc5[nH]ccc5c4)c3)CC2)=C(c2ccc(Cl)cc2)C1 [Venetoclax] (first compound max 1 µM, 7x7, partner max 1 µM) | 0.219 | 0.539 | 0.545 | 0.62 | 0.688 | 0.352 | 0.723 | 0.379 | 0.522 | 0.538 | 0.3 | 0.322 | 0.677 | 0.623 | 0.252 | 0.611 | 0.505 | -0.03 | -0.0404 | -0.0223 |
| Cc1c2c(nn1C)CSCc1cc(n(C)n1)CSc1cc(c3ccccc3c1)OCCCc1c(C(=O)O)n(C)c3c-2c(Cl)ccc13 [AZD5991] + CN(C)CCCOc1ccc(-c2ccc3ncc4c(c3c2)n(C2CCOCC2)c(=O)n4C)cn1 [AZD0156] (first compound max 1 µM, 7x7, partner max 1 µM) | 0.192 | 0.314 | 0.215 | 0.704 | 0.379 | 0.25 | 0.638 | 0.245 | 0.427 | 0.217 | 0.629 | 0.183 | 0.164 | 0.454 | 0.221 | 0.992 | 0.326 | 0.0072 | 0.0401 | -0.0259 |
| CC1(C)CCC(CN2CCN(c3ccc(C(=O)NS(=O)(=O)c4ccc(NCC5CCOCC5)c([N+](=O)[O-])c4)c(Oc4cnc5[nH]ccc5c4)c3)CC2)=C(c2ccc(Cl)cc2)C1 [Venetoclax] + COc1cc(Nc2ncc3c(n2)-c2ccc(Cl)cc2C(c2c(F)cccc2OC)=NC3)ccc1C(=O)O [Alisertib] (first compound max 1 µM, 7x7, partner max 10 µM) | 0.315 | 0.835 | 0.291 | 0.252 | 0.968 | 0.476 | 0.545 | 0.446 | 0.394 | 0.227 | 0.866 | 0.299 | 0.673 | 0.902 | 0.279 | 0.423 | 0.212 | 0.125 | -0.0132 | 0.0176 |
| COc1cccc(OCCCN)c1-c1cc(Nc2cnc(C#N)cn2)n[nH]1 [Prexasertib] + CN(C)CCCOc1ccc(-c2ccc3ncc4c(c3c2)n(C2CCOCC2)c(=O)n4C)cn1 [AZD0156] (first compound max 1 µM, 7x7, partner max 1 µM) | 0.815 | 1 | 0.622 | 0.959 | 0.869 | 0.563 | 0.579 | 0.842 | 0.758 | 0.724 | 0.968 | 0.563 | 0.734 | 0.876 | 0.409 | 0.847 | 0.293 | -0.032 | -0.0391 | -0.0711 |
| CN(CCO)CC[C@H](CSc1ccccc1)Nc1ccc(S(=O)(=O)NC(=O)c2ccc(N3CCC([C@@H](O)c4ccccc4-c4ccc(Cl)cc4)CC3)cc2)cc1S(=O)(=O)C(F)(F)F [AZD4320] + C=CCn1c(=O)c2cnc(Nc3ccc(N4CCN(C)CC4)cc3)nc2n1-c1cccc(C(C)(C)O)n1 [AZD1775] (first compound max 1 µM, partner max 1 µM) | 0.528 | 0.997 | 0.79 | 0.591 | 1 | 0.966 | 0.708 | 0.953 | 0.828 | 0.371 | 1 | 0.718 | 0.507 | 0.934 | 0.92 | 1 | 0.112 | 0.0676 | 0.0297 | -0.0129 |
| Cn1cnc2c(F)c(Nc3ccc(Br)cc3Cl)c(C(=O)NOCCO)cc21 [Selumetinib] + C=CCn1c(=O)c2cnc(Nc3ccc(N4CCN(C)CC4)cc3)nc2n1-c1cccc(C(C)(C)O)n1 [AZD1775] (first compound max 10 µM, partner max 1 µM) | 0.401 | 0.748 | 0.463 | 0.681 | 0.697 | 0.395 | 0.637 | 0.93 | 0.626 | 0.747 | 0.982 | 0.439 | 0.855 | 0.381 | 0.395 | 0.746 | 0.22 | 0.0153 | -0.0316 | -0.0078 |
